# Results published in patent publication US11214803B2, “Modulators of YAP1 expression” (Ionis Pharmaceuticals, Inc., priority 2019, dated 2022).
# Strand notation (5' to 3'): a small letter for the sugar, then the base; units joined by * are phosphorothioate-linked, units joined directly phosphodiester-linked; [ ] holds rarer units or linkages, { } end groups; capitals alone tell only the bases. k = constrained ethyl (cEt); [5mC] = 5-methylcytosine; d = 2'-deoxy (DNA)
# Tested on: Yap1 mRNA
# Test: Antisense inhibition of human Yap1 in A-431 cells by cEt gapmers, single dose (Example 2, RTS4814)
# Format: cell-based
# Procedure, shortened: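 Each 16-nucleoside gapmer (ten-deoxy gap, three-cEt wings) is tested once at 2,000 nM in A-431 cells by free uptake. Yap1 mRNA after about 48 hours is measured by quantitative RT-PCR and expressed relative to untreated control.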
# [1] = Table 18, A-431 cells, 5,000 cells per well, free uptake, 2,000 nM modified oligonucleotide, approx. 48 hours, RTS4814, normalized to RIBOGREEN, Yap1 mRNA as percent of untreated control
# [2] = Table 19, A-431 cells, 5,000 cells per well, free uptake, 2,000 nM modified oligonucleotide, approx. 48 hours, RTS4814, normalized to RIBOGREEN, Yap1 mRNA as percent of untreated control
# [3] = Table 25, Yap1 mRNA as percent of untreated control, 3-10-3 cEt gapmers targeting SEQ ID NO.: 1, and 2
# [4] = Table 5, A-431 cells, 5,000 cells per well, free uptake, 2,000 nM modified oligonucleotide, approx. 48 hours, RTS4814, normalized to RIBOGREEN, Yap1 mRNA relative to untreated control cells
# [5] = Table 22, Yap1 mRNA as percent of untreated control, 3-10-3 cEt gapmers, single dose
# [6] = Yap1 mRNA as percent of untreated control, A-431 cells, 3-10-3 cEt gapmers targeting SEQ ID NO.: 1, and 2, Table 31
# [7] = Table 24, Yap1 mRNA as percent of untreated control, 3-10-3 cEt gapmers targeting SEQ ID NO.: 1, and 2
# [8] = Table 6, A-431 cells, 5,000 cells per well, free uptake, 2,000 nM modified oligonucleotide, approx. 48 hours, RTS4814, normalized to RIBOGREEN, Yap1 mRNA relative to untreated control cells
# [9] = Yap1 mRNA as percent of untreated control, A-431 cells, 3-10-3 cEt gapmers targeting SEQ ID NO.: 1, and 2, Table 30
# [10] = Table 33, Yap1 mRNA, percent of untreated control, 3-10-3 cEt gapmers targeting SEQ ID NO.: 1, and 2
# [11] = Table 20, Yap1 mRNA, percent of untreated control, 3-10-3 cEt gapmers targeting SEQ ID NO.: 1 and 2
# [12] = A-431 cells, 5,000 cells per well, free uptake, 2,000 nM modified oligonucleotide, approx. 48 hours, RTS4814, normalized to RIBOGREEN, Table 4, asterisk (*) = targets amplicon region of primer probe set
# [13] = Table 23, Yap1 mRNA as percent of untreated control, 3-10-3 cEt gapmers, single dose
substance,measurement,setting,value
1075367 (k[5mC]*kA*kT*dT*dA*d[5mC]*dT*dT*dA*dG*dG*dG*d[5mC]*kT*kT*kA; antisense) [Compound 1075367],YAP1 (% UTC),"Table 21, Yap1 mRNA, percent of untreated control, 3-10-3 cEt gapmers targeting SEQ ID NO.: 1 and 2",12 % UTC
1074916 (antisense kA*kA*kG*dT*dT*dA*d[5mC]*dA*dT*d[5mC]*d[5mC]*d[5mC]*dG*kA*kG*kT) [Compound 1074916],YAP1 (% UTC),[1],75 % UTC
1075013 (antisense k[5mC]*kA*kT*dA*dA*dA*d[5mC]*d[5mC]*d[5mC]*dA*d[5mC]*dT*dT*k[5mC]*kG*kA) [Compound 1075013],YAP1 (% UTC),[2],102 % UTC
1076395 (kG*kT*kA*dA*d[5mC]*dT*dA*dA*d[5mC]*d[5mC]*dT*dA*dA*kG*kG*kA; antisense) [Compound 1076395],YAP1 (% UTC),[3],34 % UTC
716476 (kG*kA*kA*d[5mC]*dT*dA*d[5mC]*dA*dA*dA*d[5mC]*dT*dA*kG*kA*kA; antisense) [Compound 716476],YAP1 (% UTC),[4],91 % UTC
1076267 (kA*kT*kT*dT*dA*dA*dG*dG*dT*dG*d[5mC]*dA*dT*kA*kA*kG; antisense) [Compound 1076267],YAP1 (% UTC),[3],13 % UTC
1074856 (antisense kT*kT*kT*dG*dA*d[5mC]*dA*dA*dG*dT*dG*dT*dG*k[5mC]*kA*kT) [Compound 1074856],YAP1 (% UTC),[5],15 % UTC
1074769 (kT*k[5mC]*kT*dT*dA*dT*d[5mC]*d[5mC]*d[5mC]*dA*dA*dT*dG*k[5mC]*kT*kA; antisense) [compound 1074769],YAP1 (% UTC),[6],12 % UTC
1076426 (kA*k[5mC]*kG*dG*dG*dA*dA*dA*dA*dT*dT*d[5mC]*dT*kG*kG*kA; antisense) [Compound 1076426],YAP1 (% UTC),[7],9 % UTC
1076305 (kT*kA*k[5mC]*dT*dA*dA*dT*dA*dA*dG*d[5mC]*d[5mC]*dT*k[5mC]*kA*k[5mC]; antisense) [compound 1076305],YAP1 (% UTC),[6],37 % UTC
716465 (kG*k[5mC]*kT*d[5mC]*dT*dT*dT*d[5mC]*dT*dA*dG*dA*dA*k[5mC]*kA*k[5mC]; antisense) [Compound 716465],YAP1 (% UTC),[8],82 % UTC
1075601 (antisense kA*k[5mC]*kA*d[5mC]*dT*dA*dT*dA*dA*dT*d[5mC]*dT*dG*kA*k[5mC]*k[5mC]) [compound 1075601],YAP1 (% UTC),[6],50 % UTC
716515 (antisense kT*kA*kA*dG*d[5mC]*dT*dA*dA*dA*dG*d[5mC]*dT*dA*kA*kT*k[5mC]) [Compound 716515],YAP1 (% UTC),[4],123 % UTC
1076005 (kG*kT*kA*d[5mC]*dA*dA*dA*dA*dT*d[5mC]*dT*d[5mC]*d[5mC]*kA*kG*kG; antisense) [Compound 1076005],YAP1 (% UTC),[2],69 % UTC
1074411 (antisense kT*kG*kT*dG*dA*dA*dA*dG*dA*dG*dG*dT*d[5mC]*kA*kG*k[5mC]) [Compound 1074411],YAP1 (% UTC),[3],3 % UTC
1074186 (antisense kG*kG*kG*d[5mC]*d[5mC]*dG*dG*dT*dT*dG*dA*dG*dG*k[5mC]*kG*kG) [Compound 1074186],YAP1 (% UTC),[7],74 % UTC
1074506 (kT*kA*kA*dT*d[5mC]*dG*dA*dG*dA*dT*dT*dT*dA*kA*kA*kT; antisense) [Compound 1074506],YAP1 (% UTC),[7],107 % UTC
1076432 (k[5mC]*kA*kT*dT*dA*dG*dT*dA*dT*dT*d[5mC]*dA*d[5mC]*kT*kG*kT; antisense) [compound 1076432],YAP1 (% UTC),[9],18 % UTC
1075947 (k[5mC]*kT*kT*dT*dA*dT*dA*dG*dG*dA*dA*dT*dA*kG*kA*kG; antisense) [Compound 1075947],YAP1 (% UTC),[3],95 % UTC
1074611 (DNA kT*kA*kG*d[5mC]*dT*dT*dA*dT*dA*dT*dT*dG*dA*kA*kG*kA) [compound 1074611],YAP1 (% UTC),[10],19 % UTC
1075984 (kT*kA*kT*d[5mC]*dG*dA*dA*dA*dA*dG*d[5mC]*dA*dA*kA*k[5mC]*kT; antisense) [compound 1075984],YAP1 (% UTC),[9],44 % UTC
1076170 (kA*kG*kT*dA*dA*dA*dG*dA*dG*dT*dA*d[5mC]*dT*kG*kT*kA; antisense) [Compound 1076170],YAP1 (% UTC),[7],16 % UTC
1074673 (antisense kA*kG*kG*d[5mC]*dA*d[5mC]*dT*d[5mC]*d[5mC]*dT*dT*d[5mC]*d[5mC]*kA*kA*kG) [compound 1074673],YAP1 (% UTC),[6],43 % UTC
1075123 (k[5mC]*kT*kT*dT*dA*dG*dG*dA*dA*dA*dG*dG*dG*kT*kA*kT; antisense) [compound 1075123],YAP1 (% UTC),[10],21 % UTC
1076390 (kG*kA*kT*d[5mC]*dG*dA*dA*dA*dT*dA*dT*dT*d[5mC]*kG*kA*kG; antisense) [Compound 1076390],YAP1 (% UTC),[11],54 % UTC
1076403 (antisense kA*kT*kT*dT*dA*dA*dG*dA*d[5mC]*d[5mC]*dT*dG*dG*kT*kG*kA) [compound 1076403],YAP1 (% UTC),[10],26 % UTC
716421 (kT*kA*kT*dT*dA*dG*d[5mC]*d[5mC]*dT*dG*dA*dA*dA*kA*k[5mC]*kT; antisense) [Compound 716421],YAP1 (% UTC),[12],86 % UTC
1076164 (kT*kG*kA*dT*dA*dT*dA*dA*dG*dT*dT*dA*d[5mC]*k[5mC]*kA*kA; antisense) [Compound 1076164],YAP1 (% UTC),[1],50 % UTC
1076037 (k[5mC]*kT*kT*dA*dA*dA*dT*dT*d[5mC]*dT*d[5mC]*dT*dT*kA*k[5mC]*kG; antisense) [Compound 1076037],YAP1 (% UTC),[2],21 % UTC
716553 (kA*kT*k[5mC]*d[5mC]*dA*d[5mC]*d[5mC]*dT*dG*dA*dG*d[5mC]*dA*k[5mC]*kT*k[5mC]; antisense) [Compound 716553],YAP1 (% UTC),[12],54 % UTC
716522 (antisense kG*kT*kG*dA*d[5mC]*dT*dG*dA*dA*dA*d[5mC]*dT*d[5mC]*kT*kA*kG) [Compound 716522],YAP1 (% UTC),[8],47 % UTC
1074533 (antisense kT*kA*kG*dA*dA*d[5mC]*dA*d[5mC]*dT*dA*dA*dA*d[5mC]*kT*kA*k[5mC]) [Compound 1074533],YAP1 (% UTC),[2],80 % UTC
1074534 (antisense kT*kA*kA*dT*dA*dG*d[5mC]*dT*d[5mC]*dT*dT*dT*d[5mC]*kT*kA*kG) [Compound 1074534],YAP1 (% UTC),[11],88 % UTC
1076229 (kA*kA*kT*dT*dA*dA*d[5mC]*d[5mC]*dT*d[5mC]*dA*dG*dT*kG*kA*kG; antisense) [Compound 1076229],YAP1 (% UTC),[2],91 % UTC
716550 (kG*k[5mC]*kA*d[5mC]*dT*dG*dA*dA*dT*dA*dT*dT*dG*k[5mC]*k[5mC]*kA; antisense) [Compound 716550],YAP1 (% UTC),[12],77 % UTC
1076433 (kA*kT*kT*dA*dA*d[5mC]*dT*dT*dT*d[5mC]*dG*d[5mC]*dT*kA*kA*kA; antisense) [compound 1076433],YAP1 (% UTC),[6],69 % UTC
1075526 (kT*kT*kT*dA*dA*dT*dT*dA*dA*dG*dG*dG*d[5mC]*k[5mC]*k[5mC]*kA; antisense) [Compound 1075526],YAP1 (% UTC),[11],110 % UTC
716428 (kA*k[5mC]*kA*dG*dG*d[5mC]*dT*d[5mC]*dA*d[5mC]*dT*dT*d[5mC]*k[5mC]*k[5mC]*k[5mC]; antisense) [Compound 716428],YAP1 (% UTC),[4],10 % UTC
1076169 (k[5mC]*kT*kA*d[5mC]*dT*dA*dT*dA*dT*d[5mC]*dT*dT*dT*kG*kG*kG; antisense) [Compound 1076169],YAP1 (% UTC),[13],10 % UTC
1075371 (k[5mC]*kT*kG*d[5mC]*dA*dA*dA*dA*dG*dT*dT*d[5mC]*dT*kT*kA*k[5mC]; antisense) [Compound 1075371],YAP1 (% UTC),[3],90 % UTC
1075784 (kA*kT*kT*dT*dT*dA*dT*dA*dG*dG*dG*d[5mC]*d[5mC]*kA*kT*kT; antisense) [Compound 1075784],YAP1 (% UTC),[5],3 % UTC
1075442 (antisense kT*kA*kT*dT*dA*dG*dT*dT*d[5mC]*dT*dA*d[5mC]*dG*kA*kT*kT) [compound 1075442],YAP1 (% UTC),"Table 32, Yap1 mRNA, percent of untreated control, 3-10-3 cEt gapmers targeting SEQ ID NO.: 1, and 2",71 % UTC
1076272 (kT*kT*kA*dG*dA*dA*d[5mC]*dA*dA*d[5mC]*dT*dA*d[5mC]*kT*kA*k[5mC]; antisense) [compound 1076272],YAP1 (% UTC),[9],53 % UTC
1075987 (kG*kA*kA*dG*dA*dA*dT*dA*dT*d[5mC]*dG*dA*dA*kA*kA*kG; antisense) [compound 1075987],YAP1 (% UTC),[10],13 % UTC
716514 (antisense kG*k[5mC]*kT*dG*dA*dT*dA*dT*dA*dT*dA*dA*dG*kA*kT*kA) [Compound 716514],YAP1 (% UTC),[12],68 % UTC
1076265 (kT*kA*kT*dT*dA*d[5mC]*d[5mC]*d[5mC]*dA*dA*dT*dA*dA*k[5mC]*k[5mC]*kA; antisense) [Compound 1076265],YAP1 (% UTC),[13],9 % UTC
